Converted amounts (≈) assume the structure as drawn. “Also recorded” adds a separate entry of the source. Where two headings read alike, the source gives them in different places. *1 amine or outer side, *2 acyl side, *3 side chain or, on linkers, in order; H or OH if unused. Where a SMILES comes first, the peptide text is derived from it. [ ]: non-standard residue; d: D form. X2 = CC[C@H](C)C[C@H](C)C[C@H](C)C[C@H](N[*:1])C(=O)[*:2]; X1 = CC[C@@H](C)[C@@H](O[*:1])C(=O)[*:2]; NMeVal(β-OH) = CN[C@H](C(=O)O)C(C)(C)O; aIle = CC[C@@H](C)[C@H](N)C(=O)O; NMeV = CN[C@H](C(=O)O)C(C)C; Sar = CNCC(=O)O
Columns and labels:
Alternaria brassicae = test: MIC/MFC against phytopathogenic (endophytic) fungi
[1] = Mammalian cell cytotoxicity assay (calcein/Hoechst); type: cell-based; settings: human, read-out: LC50
Description: Cell cytotoxicity was tested against the human liver cancer cell line HepG2 and the HPV-immortalized ectocervical epithelium cell line Ect1/E6E7. The HepG2 cells were cultured in the EMEM medium supplemented with 5% FetalClone III and penicillin/streptomycin (5 Units/mL, 50 ug/mL). The Ect1/E6E7 cells were grown in the RPMI 1640 medium supplemented with 5% FetalClone III, EGF (10 ng/mL Novoprotein #C029), and penicillin/streptomycin (5 Units/mL, 50 ug/mL). For the assays, 5,000 HepG2 or Ect1/E6E7 cells were seeded into each well of a 96-well plate and allowed to attach overnight in a 37° C. humidified incubator. The next day, test compounds were diluted in DMSO, added to the wells at a final DMSO concentration of 0.5% and cells were incubated for an additional 48 hours. Cell viability was determined by the Calcein and Hoechst Assay on the Perkin Elmer Operetta. In each assay, 5 μL of the fluorescent dyes (40 μM calcein AM and 160 μM Hoechst 33342 in DMSO) and 25 μL PBS were added into each well. Plates were incubated for 30 minutes and then analyzed on the Operetta. The Harmony software was used to calculate the whole-cell area by finding all the Hoechst-labeled nuclei. The live and dead cells were assessed based on a threshold of the green calcein fluorescence. […]

Mycosphaerella populorum = test: MIC/MFC against phytopathogenic (endophytic) fungi; settings: Sphaerulina musiva
Alternaria tennuissiema = test: MIC/MFC against phytopathogenic (endophytic) fungi
P. glomerata = test: MIC/MFC against phytopathogenic (endophytic) fungi
Candida albicans SC5314 = test: Ex vivo model of fungal keratitis (porcine cornea)
Alternaria brassicicola = test: MIC/MFC against phytopathogenic (endophytic) fungi
Fusarium oxysporum = test: MIC/MFC against phytopathogenic (endophytic) fungi
Nodulosporium spp. = test: MIC/MFC against phytopathogenic (endophytic) fungi
C. albicans SC5314 Flu^R = test: Ex vivo model of fungal keratitis (porcine cornea); parameters: species or system Candida albicans

SMILES: CC[C@H](C)C[C@H](C)C[C@H](C)C[C@@H]1NC(=O)[C@H](C(C)C)N(C)C(=O)[C@@H]([C@H](C)CC)OC(=O)[C@H](C(C)(C)O)N(C)C(=O)[C@H](CC(C)C)NC(=O)[C@H](C(C)C)N(C)C(=O)[C@H]([C@H](C)CC)NC(=O)[C@@H]2CCCN2C(=O)CN(C)C1=O [Compound 1, persephacin] (cyclo(L[NMeVal(β-OH)][X1][NMeV][X2][Sar]P[aIle][NMeV]))
- MFC (Alternaria brassicae): 2.5 µM (≈ 2.69 µg/mL)
- MIC (Alternaria brassicae): 1.25 µM (≈ 1.34 µg/mL)
- CC50 at 48 h ([1]; Ect1/E6E7 cells (HPV-immortalized ectocervical epithelium), Ect1/E6E7 cell line): 30 µM
- CC50 at 48 h ([1]; HepG2 cells, HepG2 cell line): 30 µM
- MFC (Mycosphaerella populorum): 10 µM (≈ 10.8 µg/mL)
- MIC (Mycosphaerella populorum): 2.5 µM (≈ 2.69 µg/mL)
- MFC (Alternaria tennuissiema): 10 µM (≈ 10.8 µg/mL)
- MIC (Alternaria tennuissiema): 10 µM (≈ 10.8 µg/mL)
- MFC (P. glomerata): 1.25 µM (≈ 1.34 µg/mL)
- MIC (P. glomerata): 0.625 µM (≈ 0.672 µg/mL)
- MIC (P. glomerata; P. glomerata, […], listed as Persephacin A): .625 µM (≈ 0.672 µg/mL)
- antifungal activity (fungal growth/infection), in words (Candida albicans SC5314; 0.1% 118A, 2% fluconazole, 5% natamycin, FIG. 11): inhibited the growth; also recorded: eliminated the fungus
- effect of different doses on fungal growth (Candida albicans SC5314; 50-1,000 μg/mL, FIG. 8): effective at reducing or eliminating the fungus
- CFU (Candida albicans SC5314; 118A 0.1% (1 mg/ml), natamycin 5% (50 mg/ml), fluconazole 2% (20 mg/ml)): 0 CFU
- MFC (Alternaria brassicicola): 20 µM (≈ 21.5 µg/mL)
- MIC (Alternaria brassicicola): 5 µM (≈ 5.38 µg/mL)
- MFC (Fusarium oxysporum): 20 µM (≈ 21.5 µg/mL)
- MIC (Fusarium oxysporum): 5 µM (≈ 5.38 µg/mL)
- MFC (Nodulosporium spp.): > 20 µM
- MIC (Nodulosporium spp.): > 20 µM
- MFC (Nodulosporium spp.; Nodulosporium spp., […]): neither compound showed MIC or MFC activity
- MIC (Nodulosporium spp.; Nodulosporium spp., […]): neither compound showed MIC or MFC activity
- CFU (C. albicans SC5314 Flu^R; C. albicans SC5314 Flu^R, 118A 0.1% (1 mg/ml), natamycin 5% (50 mg/ml), fluconazole 2% (20 mg/ml)): 0 CFU
- effect of different doses on fungal growth (C. albicans SC5314 Flu^R; Candida albicans SC5314FluR, 50-1,000 μg/mL, FIG. 9): effective at reducing or eliminating the fungus

Source: patent US11643438B2, “Antimicrobial peptides and methods of use” (priority 2018, dated 2023)
